Assay results published in patent US7560471B2, “Indolylpiperidine derivatives as potent antihistaminic and antiallergic agents” (Laboratorios Almirall S.A., priority 2002, dated 2009).

Experiments:
serotonin-5HT2 receptors = target: T1, serotonin-5HT2 receptors (Homo sapiens, UniProt P28223); assay: Serotonin-5HT2 receptor binding assay (3H-Ketanserin); settings: human frontal cerebral cortex membranes, 1 nM 3H-Ketanserin; read-out: 5HT-2
T1 construct: performed in human frontal cerebral cortex membranes; from tissue; host or cells: human frontal cerebral cortex membranes
Protocol: (§1) (1) Histamine-H1 Receptor Binding Assay
(3) Serotonin-5HT2 Receptor Binding Assay
The study of binding to serotonin-5HT2 receptors was performed in human frontal cerebral cortex membranes as described previously (Pazos et al., Eur. J. of Pharmacol, 1985, 106, 531-538). Briefly, the membrane suspensions (170 μg/ml) were incubated at 37° C. with 1 nM 3H-Ketanserin and different concentrations of the test compounds in a final volume of 250 μl. Binding reactions were terminated by filtration after 30 minutes of incubation under constant shaking and the bound radioactivity was measured. The non-specific binding was estimated in the presence of 10 μM mianserin. The affinity of each test compound to the receptor was determined by using at least six different concentrations run in duplicate. IC50 values were calculated by non-linear regression using SAS.

[1] = system: histamine-induced papule (skin vascular permeability); assay: Histamine-induced skin vascular permeability in rats; assay type: in vivo, rat; settings: male Wistar rats, oral, 4 h after administration, inhibition of papule area vs vehicle
Protocol: as §1
(2) Histamine-Induced Skin Vascular Permeability in Rats
Male Wistar rats (180-210 g) were treated orally with the test compound or vehicle. Either one, four, eight or 24 hours later the rats were lightly anaesthetised with ether and a cutaneous reaction was induced by two intradermal injections of 50 μl of histamine (100 μg/ml) onto the back, followed by an intravenous injection of 3 ml/kg of Evan's Blue (5 mg/ml), both dissolved in saline. Sixty minutes later, the rats were killed by cervical dislocation and the back skin dissected free. The diameter (in millimetres) of the papule was measured in two directions and the area was calculated. Results are given as the % of inhibition at a given dose compared with the vehicle treated group.

histamine-H1 receptors = histamine-H1 receptors (Cavia porcellus, UniProt P31389); assay: Histamine-H1 receptor binding assay ([3H]-mepyramine); settings: guinea pig cerebellum membranes, 0.7 nM [3H]-mepyramine
Protocol: as §1
The study of binding to histamine-H1 receptors was performed in guinea pig cerebellum membranes as described by Chang et al., J. Neurochem, 1979, 32, 1653-1663. Briefly, the membrane suspensions (160 μg/ml) were incubated at 30° C. with 0.7 nM [^3H]-mepyramine and different concentrations of the test compounds in a final volume of 250 μl. Binding reactions were terminated by filtration after 30 min of incubation and the bound radioactivity was determined. The non-specific binding was measured in the presence of 10 μM of promethazine. The affinity of each test compound to the receptor was determined by using at least six different concentrations run in duplicate. IC50 values were obtained by non-linear regression by use of SAS on a DEC AXP computer.

Sequence of histamine-H1 receptors (P31389 whole entry): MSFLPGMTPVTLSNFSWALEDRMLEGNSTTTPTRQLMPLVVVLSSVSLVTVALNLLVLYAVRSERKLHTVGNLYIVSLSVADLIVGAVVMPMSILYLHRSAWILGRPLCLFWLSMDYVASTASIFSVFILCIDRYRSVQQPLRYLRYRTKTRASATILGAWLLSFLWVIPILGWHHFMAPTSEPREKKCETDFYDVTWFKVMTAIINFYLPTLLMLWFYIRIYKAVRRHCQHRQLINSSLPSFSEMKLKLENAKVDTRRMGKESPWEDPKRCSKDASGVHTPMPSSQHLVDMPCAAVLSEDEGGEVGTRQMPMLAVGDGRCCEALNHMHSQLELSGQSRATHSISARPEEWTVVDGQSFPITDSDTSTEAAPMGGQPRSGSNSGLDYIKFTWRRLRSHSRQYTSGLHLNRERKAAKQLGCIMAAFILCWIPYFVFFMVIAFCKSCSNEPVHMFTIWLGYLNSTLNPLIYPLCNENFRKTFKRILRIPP
T1 sequence (P28223 whole entry): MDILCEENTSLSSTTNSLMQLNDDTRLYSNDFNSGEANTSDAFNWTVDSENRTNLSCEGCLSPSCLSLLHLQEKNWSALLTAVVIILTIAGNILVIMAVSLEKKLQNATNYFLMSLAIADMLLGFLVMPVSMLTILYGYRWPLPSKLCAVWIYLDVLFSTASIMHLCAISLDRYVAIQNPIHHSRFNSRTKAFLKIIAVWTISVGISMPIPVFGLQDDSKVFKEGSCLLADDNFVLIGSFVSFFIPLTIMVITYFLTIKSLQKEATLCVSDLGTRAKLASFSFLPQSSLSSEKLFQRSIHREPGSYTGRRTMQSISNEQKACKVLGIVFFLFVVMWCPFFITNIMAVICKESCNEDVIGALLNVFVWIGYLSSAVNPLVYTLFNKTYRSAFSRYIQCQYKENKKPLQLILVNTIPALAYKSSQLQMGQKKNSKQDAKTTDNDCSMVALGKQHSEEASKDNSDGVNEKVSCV

Row | Structure (SMILES) | IC50 (serotonin-5HT2 receptors) [µM] | papule (4h) % inh a 1 mg/Kg [1] [%] | IC50 (histamine-H1 receptors) [nM]
1 | CCOCCn1cc(C2CCN(Cc3ccc(OC)c(C(=O)O)c3)CC2)c2ccccc21 [Example 1, 5-{4-[1-(2-ethoxyethyl)-1H-indol-3-yl]piperidin-1-ylmethyl}-2-methoxybenzoic acid] | 5.35 | 88 | 145
2 | COCCn1cc(C2CCN(Cc3ccc(OC)c(C(=O)O)c3)CC2)c2ccccc21 [Example 2, 2-methoxy-5-{4-[1-(2-methoxyethyl)-1H-indol-3-yl]piperidin-1-ylmethyl}benzoic acid] | > 10 | 96 | 470
3 | CCCCn1cc(C2CCN(Cc3ccc(OC)c(C(=O)O)c3)CC2)c2ccccc21 [Example 3, 5-[4-(1-butyl-1H-indol-3-yl)-piperidin-1-ylmethyl]-2-methoxybenzoic acid] | 4.5 | 100 | 130
4 | CCOCCn1cc(C2CCN(Cc3ccc(OC)c(C(=O)O)c3)CC2)c2ccc(F)cc21 [Example 4, 5-{4-[1-(2-ethoxyethyl)-6-fluoro-1H-indol-3-yl]piperidin-1-ylmethyl}-2-methoxybenzoic acid] | 4.3 | 89 | 160
5 | COCCn1cc(C2CCN(Cc3ccc(OC)c(C(=O)O)c3)CC2)c2ccc(F)cc21 [Example 5, 5-{4-[6-fluoro-1-(2-methoxyethyl)-1H-indol-3-yl]piperidin-1-ylmethyl}-2-methoxybenzoic acid] | > 10 | 96 | 245
